pIC50: −log10 of the molar value.
Assays:
[1] = target: T1, E. coli GyrA S172A/GyrB gyrase (Escherichia coli, UniProt P0AES4, S172A); test: Gyrase supercoiling inhibition, GyrA S172A variant; assay type: biochemical
T1 construct: represents the first full-length E. coli gyrase structure in complex with an intact DNA molecule; 10xHis; 2xStrep (Twin-Strep); made in house
Method: Of this stock solution, 27 µl was aliquoted for each reaction in 1.5 ml Eppendorf tubes and supplemented with 0.6 µl of the appropriate compound dilution or corresponding solvent with a final DMSO concentration of 2%. The reactions were started with 3 µl of enzyme (1 U for WT gyrase retrieved from Inspiralis Limited or 25–30 nM gyrase variants purified in house) in dilution buffer (50 mM Tris–HCl (pH 7.5), 100 mM KCl, 2 mM DTT, 1 mM EDTA and 50% (wt/vol) glycerol) for a final volume of 30 µl. Reactions were run at 37 °C for 30 min and stopped with the addition of 30 µl STEB buffer (40% (wt/vol) sucrose, 100 mM Tris–HCl pH 8, 100 mM EDTA, 0.5 mg ml^−1 bromophenol blue) and 30 µl of a chloroform:isoamyl alcohol solution (24:1 vol/vol). After brief vortexing and centrifugation at 2,300g for 1 min, 20 µl of the aqueous phase was loaded onto 1% (wt/vol) agarose gels in TAE (Tris–acetate […]) gel. The gels were run at 85 V for 2 h followed by staining (15 min) in 1 µg ml^−1 ethidium bromide and destaining (5–10 min) in water. DNA was visualized (602/50, UV Trans, auto optimal exposure) with a ChemiDoc MP (Bio-Rad Laboratories Inc., equipped with ImageLab Touch Software v2.0.0.27) and the percentage of supercoiled DNA relative to the total amount material per lane was determined with ImageLab 6.1 software (Bio-Rad Laboratories Inc.) or ImageJ[47] software. […]

E. coli DNA gyrase = target: T2, E. coli DNA gyrase (Escherichia coli, UniProt P0AES4); test: Gyrase supercoiling inhibition, gel-based; assay type: biochemical
T2 construct: purchased Inspiralis Limited
Method: Of this stock solution, 27 µl was aliquoted for each reaction in 1.5 ml Eppendorf tubes and supplemented with 0.6 µl of the appropriate compound dilution or corresponding solvent with a final DMSO concentration of 2%. The reactions were started with 3 µl of enzyme (1 U for WT gyrase retrieved from Inspiralis Limited or 25–30 nM gyrase variants purified in house) in dilution buffer (50 mM Tris–HCl (pH 7.5), 100 mM KCl, 2 mM DTT, 1 mM EDTA and 50% (wt/vol) glycerol) for a final volume of 30 µl. Reactions were run at 37 °C for 30 min and stopped with the addition of 30 µl STEB buffer (40% (wt/vol) sucrose, 100 mM Tris–HCl pH 8, 100 mM EDTA, 0.5 mg ml^−1 bromophenol blue) and 30 µl of a chloroform:isoamyl alcohol solution (24:1 vol/vol). After brief vortexing and centrifugation at 2,300g for 1 min, 20 µl of the aqueous phase was loaded onto 1% (wt/vol) agarose gels in TAE ([…]) gel. The gels were run at 85 V for 2 h followed by staining (15 min) in 1 µg ml^−1 ethidium bromide and destaining (5–10 min) in water. […] IC50 curves were generated in GraphPad Prism (v9.0.0) using the non-linear regression curve fit variable slope with four parameters and least squares regression. A. baumannii and P. aeruginosa gyrase supercoiling inhibition assays were set up in the same way as E. coli gyrase supercoiling assays. The enzyme was retrieved from Inspiralis Ltd. (PAG1001 and ABG1001) and tested in-house for activity with ×5 U enzyme used for each reaction.

SMILES | pIC50 [1] | pIC50 (E. coli DNA gyrase) | fold less potent than LEI-800 (E. coli DNA gyrase; supercoiling IC50 ratio) [fold] | fold more potent than CIP (E. coli DNA gyrase; supercoiling IC50 ratio) [fold]
O=S(=O)(NC[C@H]1CC[C@@H](c2ccc(-c3ccc(F)nc3)cc2)N1)c1cccc2cnccc12 [LEI-801] | 6.44 | 6.36 | 13 | –
O=S(=O)(NC[C@@H]1CC[C@H](c2ccc(-c3cccnc3)cc2)N1)c1cccc2cnccc12 [LEI-800] | 7.07 | 7.46 | – | > 25
